According to patent US11992499B2, “Quinoline derivatives for use in the treatment of inflammation diseases” (ABIVAX, priority 2018, dated 2024):
Entries after “also recorded” stand apart in the source; their conditions may differ. Where two headings read alike, the source gives them in different places.

Key:
[1] = system: STAM model of non-alcoholic steatohepatitis; assay type: in vivo; settings: for Liver weight (mean ± SD) / Liver-to-body weight ratio (mean ± SD): n = 8
Source text: To prepare dosing solution, Compound A and B were weighed and suspended in Vehicle which was composed of 20% of Vehicle-A1 and 80% of Vehicle-A2. Vehicle-A1 was composed of 0.5% (w/v) Carboxymethyl cellulose (CMC) 400-800 centipoises in water for injection+2.5% (w/v) Tween 80. Vehicle-A2 was composed of 0.5% (w/v) Carboxymethyl cellulose (CMC) 400-800 centipoises in water for injection. Telmisartan (Micardis®) was purchased from Boehringer Ingelheim GmbH (Germany) and dissolved in pure water.
(§1) NASH was induced in 48 male mice by a single subcutaneous injection of 200 μg streptozotocin (STZ, Sigma-Aldrich, USA) solution 2 days after birth and feeding with high fat diet (HFD, 57 kcal % fat, Cat #HFD32, CLEA Japan, Inc., Japan) after 4 weeks of age.
Compound A and B, and Telmisartan were administered orally in a volume of 10 mL/kg.
(§2) Compound A was administered at 3 dose levels of 10, 20 and 40 mg/kg once daily from 6 to 9 weeks of age. Compound B was administered at a dose of 40 mg/kg once daily from 6 to 9 weeks of age. Telmisartan was administered at a dose of 10 mg/kg once daily from 6 to 9 weeks of age.
C57BL/6 mice (14-day-pregnant female) were obtained from Japan SLC, Inc. (Japan). All animals used in the study were housed and cared for in accordance with the Japanese Pharmacological Society Guidelines for Animal Use.
Group 1: Vehicle Eight NASH mice were orally administered vehicle [20% of Vehicle-A1 and 80% of Vehicle-A2] in a volume of 10 mL/kg once daily from 6 to 9 weeks of age.
Eight NASH mice were orally administered vehicle supplemented with Compound A at a dose of 10 mg/kg once daily from 6 to 9 weeks of age.
Eight NASH mice were orally administered vehicle supplemented with Compound A at a dose of 20 mg/kg once daily from 6 to 9 weeks of age.
Eight NASH mice were orally administered vehicle supplemented with Compound A at a dose of 40 mg/kg once daily from 6 to 9 weeks of age.
Eight NASH mice were orally administered vehicle supplemented with Compound B at a dose of 40 mg/kg once daily from 6 to 9 weeks of age.
Eight NASH mice were orally administered pure water supplemented with Telmisartan at a dose of 10 mg/kg once daily from 6 to 9 weeks of age.
The viability, clinical signs and behavior were monitored daily. Body weight was recorded before the treatment. […] The animals were sacrificed at 9 weeks of age by exsanguination through direct cardiac puncture under isoflurane anesthesia (Pfizer Inc.).

[2] = system: STAM model of non-alcoholic steatohepatitis; assay: STAM model of NASH: Sirius red staining, fibrosis area; assay type: in vivo, mice; settings: for Sirius red-positive area (fibrosis area, mean ± SD): n = 8
Description: NASH was induced in 48 male mice by a single subcutaneous injection of 200 μg streptozotocin (STZ, Sigma-Aldrich, USA) solution 2 days after birth and feeding with high fat diet (HFD, 57 kcal % fat, Cat #HFD32, CLEA Japan, Inc., Japan) after 4 weeks of age. Compound A was administered at 3 dose levels of 10, 20 and 40 mg/kg once daily from 6 to 9 weeks of age. Compound B was administered at a dose of 40 mg/kg once daily from 6 to 9 weeks of age. Telmisartan was administered at a dose of 10 mg/kg once daily from 6 to 9 weeks of age. For HE staining, sections were cut from paraffin blocks of liver tissue prefixed in Bouin's solution and stained with Lillie-Mayer's Hematoxylin (Muto Pure Chemicals Co., Ltd., Japan) and eosin solution (FUJIFILM Wako Pure Chemical Corporation). NAFLD Activity score (NAS) was calculated according to the criteria of Kleiner (Kleiner D E. et al., Hepatology, 2005; 41:1313). To visualize collagen deposition, Bouin's fixed liver sections were stained using picro-Sirius red solution (Waldeck, Germany). For quantitative analysis of fibrosis area, bright field images of Sirius red-stained sections were captured around the central vein using a digital camera (DFC295; Leica, Germany) at 200-fold magnification, and the positive areas in 5 fields/section were measured using ImageJ software (National Institute of Health, USA).

[3] = system: STAM model of non-alcoholic steatohepatitis; assay: STAM model of NASH: liver triglyceride content; assay type: in vivo, mice; settings: n = 8
Description: as §1, §2
Liver total lipid-extracts were obtained by Folch's method (Folch J. et al., J. Biol. Chem. 1957; 226: 497). Liver samples were homogenized in chloroform-methanol (2:1, v/v) and incubated overnight at room temperature. After washing with chloroform-methanol-water (8:4:3, v/v/v), the extracts were evaporated to dryness, and dissolved in isopropanol. Liver triglyceride content was measured by Triglyceride E-test (FUJIFILM Wako Pure Chemical Corporation, Japan).

[4] = 10 mg/kg PO QD (Compound A low, Telmisartan groups)
[5] = 10 mg/kg PO QD, 6-9 wks of age (Compound A low, Telmisartan groups)
[6] = 20 mg/kg PO QD (Compound A middle group)
[7] = 20 mg/kg PO QD, 6-9 wks of age (Compound A middle group)
[8] = 40 mg/kg PO QD (Compound A high, Compound B groups)
[9] = 40 mg/kg PO QD, 6-9 wks of age (Compound A high, Compound B groups)

## FC(F)(F)Oc1ccc(Nc2ccc3cccc(Cl)c3n2)cc1 [Compound A, 8-Chloro-N-(4-(trifluoromethoxy)phenyl)quinolin-2-amine]
[1]; [4]
  Mean liver weight compared with the Vehicle group: significant increase
  Mean liver-to-body weight ratio compared with the Vehicle group: tended to increase
[1]; [5]
  Liver weight (mean ± SD): 1662 ± 254 mg
  Liver-to-body weight ratio (mean ± SD): 8.4 ± 1.8%
[1]; [6]
  Mean liver weight compared with the Vehicle group: no significant difference
  Mean liver-to-body weight ratio compared with the Vehicle group: tended to increase
[1]; [7]
  Liver weight (mean ± SD): 1500 ± 77 mg
  Liver-to-body weight ratio (mean ± SD): 7.6 ± 0.4%
[1]; [8]
  Mean liver weight compared with the Vehicle group: tended to increase
  Mean liver-to-body weight ratio compared with the Vehicle group: tended to increase
[1]; [9]
  Liver weight (mean ± SD): 1654 ± 145 mg
  Liver-to-body weight ratio (mean ± SD): 8.5 ± 1.1%
[2]; [5]
  Sirius red-positive area (fibrosis area, mean ± SD): 0.70 ± 0.11%
[2]; [6]
  Fibrosis area (Sirius red-positive area) compared with the Vehicle group: tended to decrease; also recorded: decreasing trends
[2]; [7]
  Sirius red-positive area (fibrosis area, mean ± SD): 0.65 ± 0.13%
[2]; [9]
  Sirius red-positive area (fibrosis area, mean ± SD): 0.68 ± 0.14%
[2]; summary statement, dose not stated
  Pathological deposition of collagen in the liver (Sirius red staining): decreasing trend
[3]; [5]
  Liver triglyceride (mean ± SD): 64.9 ± 27.6 mg/g liver
[3]; [7]
  Liver triglyceride (mean ± SD): 63.1 ± 21.2 mg/g liver
[3]; [9]
  Liver triglyceride (mean ± SD): 66.6 ± 25.6 mg/g liver
